# Biological target: T1, Tyrosine-protein kinase JAK2 (Homo sapiens, UniProt O60674)
# Assay: Inhibition of human JAK2 at 10 uM using poly(Glu:Tyr)(4:1) as substrate preincubated for 20 mins followed by [gamma33P]ATP addition measured after 120 mins by ion exchange filter paper method relative to control
# Details: not given
# T1 sequence (O60674 whole entry): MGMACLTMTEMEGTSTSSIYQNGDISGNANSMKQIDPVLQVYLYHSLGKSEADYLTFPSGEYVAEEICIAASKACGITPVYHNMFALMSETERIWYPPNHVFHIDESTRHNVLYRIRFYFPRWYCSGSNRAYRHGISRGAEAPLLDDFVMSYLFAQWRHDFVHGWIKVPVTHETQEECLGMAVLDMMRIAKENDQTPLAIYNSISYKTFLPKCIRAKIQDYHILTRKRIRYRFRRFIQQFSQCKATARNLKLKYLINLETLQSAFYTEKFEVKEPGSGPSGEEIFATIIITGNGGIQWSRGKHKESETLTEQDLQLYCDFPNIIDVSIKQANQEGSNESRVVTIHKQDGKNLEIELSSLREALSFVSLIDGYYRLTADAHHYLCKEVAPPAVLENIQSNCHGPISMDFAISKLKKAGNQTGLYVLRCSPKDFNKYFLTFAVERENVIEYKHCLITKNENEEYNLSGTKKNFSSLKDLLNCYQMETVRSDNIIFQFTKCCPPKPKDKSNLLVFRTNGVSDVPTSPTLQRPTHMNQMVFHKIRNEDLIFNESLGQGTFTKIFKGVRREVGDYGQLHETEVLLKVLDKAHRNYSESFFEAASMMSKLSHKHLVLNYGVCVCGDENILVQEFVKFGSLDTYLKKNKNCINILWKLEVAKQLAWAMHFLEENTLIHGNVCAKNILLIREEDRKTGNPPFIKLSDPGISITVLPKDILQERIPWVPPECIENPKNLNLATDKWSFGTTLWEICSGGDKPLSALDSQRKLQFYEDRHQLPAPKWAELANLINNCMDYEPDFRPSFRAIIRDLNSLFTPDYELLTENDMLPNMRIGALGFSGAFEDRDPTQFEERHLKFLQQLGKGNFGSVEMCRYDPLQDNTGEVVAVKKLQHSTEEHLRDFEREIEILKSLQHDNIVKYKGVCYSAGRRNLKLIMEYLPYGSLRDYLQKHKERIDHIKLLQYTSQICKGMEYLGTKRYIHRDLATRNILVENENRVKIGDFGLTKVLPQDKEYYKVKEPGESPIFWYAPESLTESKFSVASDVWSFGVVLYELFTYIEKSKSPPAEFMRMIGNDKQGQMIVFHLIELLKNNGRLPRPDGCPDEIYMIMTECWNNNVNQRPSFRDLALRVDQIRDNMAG
row,inhibition [%],SMILES
1,96.4,CC(=O)Nc1ccc(-c2ccnc(Nc3ccccc3)n2)cc1
2,3.85,CC(=O)Nc1ccc(-c2ccnc(NCc3ccccc3)n2)cc1
3,6.22,CC(=O)Nc1ccc(-c2ccnc(NCCc3ccccc3)n2)cc1

# Biological target: T1, Tyrosine-protein kinase JAK2
# Assay: Inhibition of human JAK2 using poly(Glu:Tyr)(4:1) as substrate preincubated for 20 mins followed by [gamma33P]ATP addition measured after 120 mins by ion exchange filter paper method
# Details: not given
row,IC50 [nM],SMILES
1,27.4,CC(=O)Nc1ccc(-c2ccnc(Nc3ccccc3)n2)cc1
2,17,CC(=O)Nc1ccc(-c2ccnc(Nc3cccc(OCCCCCCCC(=O)NO)c3)n2)cc1

# Biological target: Histone deacetylase 1 (Homo sapiens, UniProt Q13547)
# Assay: Inhibition of HDAC1 (unknown origin) using Arg-His-Lys-Lys(Ac) as substrate preincubated with enzyme followed by substrate addition for 2 hrs and measured for 1.5 hrs at 15 mins time interval by fluorescence assay
# Details: not given
# Sequence of Histone deacetylase 1 (Q13547 whole entry): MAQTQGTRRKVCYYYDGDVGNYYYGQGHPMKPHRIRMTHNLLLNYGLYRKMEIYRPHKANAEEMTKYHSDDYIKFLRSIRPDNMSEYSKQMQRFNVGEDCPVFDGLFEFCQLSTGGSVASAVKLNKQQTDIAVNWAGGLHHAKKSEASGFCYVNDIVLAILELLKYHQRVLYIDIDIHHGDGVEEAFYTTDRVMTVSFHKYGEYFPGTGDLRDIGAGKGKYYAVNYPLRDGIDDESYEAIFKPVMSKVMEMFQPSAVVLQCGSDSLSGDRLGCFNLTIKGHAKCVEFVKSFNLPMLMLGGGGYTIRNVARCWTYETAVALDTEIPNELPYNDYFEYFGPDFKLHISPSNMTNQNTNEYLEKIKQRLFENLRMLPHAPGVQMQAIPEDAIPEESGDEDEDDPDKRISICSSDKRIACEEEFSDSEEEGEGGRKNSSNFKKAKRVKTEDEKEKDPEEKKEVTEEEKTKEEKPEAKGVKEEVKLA
row,IC50 [nM],SMILES
1,1040,CC(=O)Nc1ccc(-c2ccnc(Nc3cccc(OCCCCCCCC(=O)NO)c3)n2)cc1

# Biological target: T2, Protein deacetylase HDAC6 (Homo sapiens, UniProt Q9UBN7)
# T2 sequence (Q9UBN7 whole entry): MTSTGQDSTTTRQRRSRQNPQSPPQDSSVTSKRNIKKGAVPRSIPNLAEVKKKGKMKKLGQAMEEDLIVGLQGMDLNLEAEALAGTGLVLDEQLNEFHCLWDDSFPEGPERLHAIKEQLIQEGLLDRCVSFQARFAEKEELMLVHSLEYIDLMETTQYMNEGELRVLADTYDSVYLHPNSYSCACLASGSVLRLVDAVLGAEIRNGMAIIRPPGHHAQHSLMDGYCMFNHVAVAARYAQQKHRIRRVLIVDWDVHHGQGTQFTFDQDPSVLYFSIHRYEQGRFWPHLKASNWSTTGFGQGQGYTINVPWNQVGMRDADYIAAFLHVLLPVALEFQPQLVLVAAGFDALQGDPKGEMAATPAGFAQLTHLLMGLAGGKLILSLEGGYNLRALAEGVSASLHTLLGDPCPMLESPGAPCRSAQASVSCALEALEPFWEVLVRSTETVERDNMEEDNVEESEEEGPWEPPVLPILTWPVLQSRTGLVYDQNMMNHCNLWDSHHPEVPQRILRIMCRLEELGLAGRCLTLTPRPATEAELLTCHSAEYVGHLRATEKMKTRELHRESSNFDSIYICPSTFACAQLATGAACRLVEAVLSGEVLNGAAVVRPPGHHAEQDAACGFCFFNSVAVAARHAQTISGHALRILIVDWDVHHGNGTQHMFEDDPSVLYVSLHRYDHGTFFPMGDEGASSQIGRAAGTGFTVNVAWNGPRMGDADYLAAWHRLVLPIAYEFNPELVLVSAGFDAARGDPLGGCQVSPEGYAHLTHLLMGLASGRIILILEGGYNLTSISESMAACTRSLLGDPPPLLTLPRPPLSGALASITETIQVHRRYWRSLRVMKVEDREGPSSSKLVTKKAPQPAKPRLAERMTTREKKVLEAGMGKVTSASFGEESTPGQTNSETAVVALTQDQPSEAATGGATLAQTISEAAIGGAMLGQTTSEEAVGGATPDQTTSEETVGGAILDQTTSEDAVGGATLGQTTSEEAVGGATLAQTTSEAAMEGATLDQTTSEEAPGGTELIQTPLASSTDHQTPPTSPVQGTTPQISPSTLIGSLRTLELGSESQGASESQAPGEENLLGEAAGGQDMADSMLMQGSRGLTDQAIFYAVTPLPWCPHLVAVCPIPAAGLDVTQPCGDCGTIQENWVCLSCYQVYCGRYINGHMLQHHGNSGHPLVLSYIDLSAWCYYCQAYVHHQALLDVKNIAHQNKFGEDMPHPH
# Assay: Inhibition of HDAC6 (unknown origin) using Arg-His-Lys-Lys(Ac) as substrate preincubated with enzyme followed by substrate addition for 2 hrs and measured for 1.5 hrs at 15 mins time interval by fluorescence assay
# Details: not given
row,IC50 [nM],SMILES
1,6.7,CC(=O)Nc1ccc(-c2ccnc(Nc3cccc(OCCCCCCCC(=O)NO)c3)n2)cc1

# System: HCT-116
# Assay: Antiproliferative activity against human HCT116 cells after 72 hrs by MTT assay
# Assay type: functional, cell-based
# Details: HCT-116, 72 h
row,IC50 [nM],SMILES
1,1510,CC(=O)Nc1ccc(-c2ccnc(Nc3cccc(OCCCCCCCC(=O)NO)c3)n2)cc1

# System: MDA-MB-231
# Assay: Antiproliferative activity against human MDA-MB-231 cells after 72 hrs by MTT assay
# Assay type: functional, cell-based
# Details: MDA-MB-231, 72 h
row,IC50 [nM],SMILES
1,3610,CC(=O)Nc1ccc(-c2ccnc(Nc3cccc(OCCCCCCCC(=O)NO)c3)n2)cc1

# System: MCF7
# Assay: Antiproliferative activity against human MCF7 cells after 72 hrs by MTT assay
# Assay type: functional, cell-based
# Details: MCF7, 72 h
row,IC50 [nM],SMILES
1,1220,CC(=O)Nc1ccc(-c2ccnc(Nc3cccc(OCCCCCCCC(=O)NO)c3)n2)cc1

# System: PC-3
# Assay: Antiproliferative activity against human PC3 cells after 72 hrs by MTT assay
# Assay type: functional, cell-based
# Details: PC-3, 72 h
row,IC50 [nM],SMILES
1,1640,CC(=O)Nc1ccc(-c2ccnc(Nc3cccc(OCCCCCCCC(=O)NO)c3)n2)cc1

# System: not listed separately
# Assay: Antiproliferative activity against human AC10 cells after 72 hrs by MTT assay
# Assay type: cell-based
# Details: not given
row,SMILES,CC50 at 72 h [nM]
1,CC(=O)Nc1ccc(-c2ccnc(Nc3cccc(OCCCCCCCC(=O)NO)c3)n2)cc1,> 100000

# System: not listed separately
# Assay: Antiproliferative activity against mouse TAMH cells after 72 hrs by MTT assay
# Assay type: cell-based
# Details: not given
row,SMILES,CC50 at 72 h [nM]
1,CC(=O)Nc1ccc(-c2ccnc(Nc3cccc(OCCCCCCCC(=O)NO)c3)n2)cc1,2770

# System: not listed separately
# Assay: Selectivity index, ratio of CC50 for human AC10 cells to IC50 for human HCT116 cells
# Assay type: toxicity
# Details: AC10 cells (CC50) and HCT116 cells (IC50)
row,SMILES,selectivity ratio
1,CC(=O)Nc1ccc(-c2ccnc(Nc3cccc(OCCCCCCCC(=O)NO)c3)n2)cc1,> 66.2

# System: not listed separately
# Assay: Selectivity index, ratio of CC50 for mouse TAMH cells to IC50 for human HCT116 cells
# Assay type: toxicity
# Details: TAMH cells (CC50) and HCT116 cells (IC50)
row,SMILES,selectivity ratio
1,CC(=O)Nc1ccc(-c2ccnc(Nc3cccc(OCCCCCCCC(=O)NO)c3)n2)cc1,1.83

# System: not listed separately
# Assay: Selectivity index, ratio of CC50 for human AC10 cells to IC50 for human MDA-MB-231 cells
# Assay type: toxicity
# Details: AC10 cells (CC50) and MDA-MB-231 cells (IC50)
row,SMILES,selectivity ratio
1,CC(=O)Nc1ccc(-c2ccnc(Nc3cccc(OCCCCCCCC(=O)NO)c3)n2)cc1,> 27.7

# System: not listed separately
# Assay: Selectivity index, ratio of CC50 for mouse TAMH cells to IC50 for human MDA-MB-231 cells
# Assay type: toxicity
# Details: TAMH cells (CC50) and MDA-MB-231 cells (IC50)
row,SMILES,selectivity ratio
1,CC(=O)Nc1ccc(-c2ccnc(Nc3cccc(OCCCCCCCC(=O)NO)c3)n2)cc1,0.77

# System: not listed separately
# Assay: Selectivity index, ratio of CC50 for human AC10 cells to IC50 for human MCF7 cells
# Assay type: toxicity
# Details: AC10 cells (CC50) and MCF7 cells (IC50)
row,SMILES,selectivity ratio
1,CC(=O)Nc1ccc(-c2ccnc(Nc3cccc(OCCCCCCCC(=O)NO)c3)n2)cc1,> 82

# System: not listed separately
# Assay: Selectivity index, ratio of CC50 for mouse TAMH cells to IC50 for human MCF7 cells
# Assay type: toxicity
# Details: TAMH cells (CC50) and MCF7 cells (IC50)
row,SMILES,selectivity ratio
1,CC(=O)Nc1ccc(-c2ccnc(Nc3cccc(OCCCCCCCC(=O)NO)c3)n2)cc1,2.27

# System: not listed separately
# Assay: Selectivity index, ratio of CC50 for human AC10 cells to IC50 for human PC3 cells
# Assay type: toxicity
# Details: AC10 cells (CC50) and PC3 cells (IC50)
row,SMILES,selectivity ratio
1,CC(=O)Nc1ccc(-c2ccnc(Nc3cccc(OCCCCCCCC(=O)NO)c3)n2)cc1,> 61

# System: not listed separately
# Assay: Selectivity index, ratio of CC50 for mouse TAMH cells to IC50 for human PC3 cells
# Assay type: toxicity
# Details: TAMH cells (CC50) and PC3 cells (IC50)
row,SMILES,selectivity ratio
1,CC(=O)Nc1ccc(-c2ccnc(Nc3cccc(OCCCCCCCC(=O)NO)c3)n2)cc1,1.69

# System: HEL 92.1.7
# Assay: cells
# Assay type: functional, cell-based
# Details: Homo sapiens, HEL 92.1.7, 72 h
# Description: Antiproliferative activity against human HEL 92.1.7 cells after 72 hrs by MTT assay
row,IC50 [nM],SMILES
1,3340,CC(=O)Nc1ccc(-c2ccnc(Nc3cccc(OCCCCCCCC(=O)NO)c3)n2)cc1

# System: Jurkat
# Assay: Antiproliferative activity against human Jurkat cells after 72 hrs by MTT assay
# Assay type: functional, cell-based
# Details: not given
row,IC50 [nM],SMILES
1,> 10000,CC(=O)Nc1ccc(-c2ccnc(Nc3cccc(OCCCCCCCC(=O)NO)c3)n2)cc1

# System: KMS-12-BM
# Assay: Antiproliferative activity against human KMS-12-BM cells after 72 hrs by MTT assay
# Assay type: functional, cell-based
# Details: not given
row,SMILES,IC50 [nM]
1,CC(=O)Nc1ccc(-c2ccnc(Nc3cccc(OCCCCCCCC(=O)NO)c3)n2)cc1,680

# System: not listed separately
# Assay: Antiproliferative activity against human XG6 cells after 72 hrs by MTT assay
# Assay type: functional, cell-based
# Details: XG6, 72 h
row,SMILES,IC50 [nM]
1,CC(=O)Nc1ccc(-c2ccnc(Nc3cccc(OCCCCCCCC(=O)NO)c3)n2)cc1,7220

# System: not listed separately
# Assay: Selectivity index, ratio of CC50 for human AC10 cells to IC50 for human HEL 92.1.7 cells
# Assay type: toxicity
# Details: AC10 cells (CC50) and HEL 92.1.7 cells (IC50)
row,SMILES,selectivity ratio
1,CC(=O)Nc1ccc(-c2ccnc(Nc3cccc(OCCCCCCCC(=O)NO)c3)n2)cc1,> 30

# System: not listed separately
# Assay: Selectivity index, ratio of CC50 for mouse TAMH cells to IC50 for human HEL 92.1.7 cells
# Assay type: toxicity
# Details: TAMH cells (CC50) and HEL 92.1.7 cells (IC50)
row,SMILES,selectivity ratio
1,CC(=O)Nc1ccc(-c2ccnc(Nc3cccc(OCCCCCCCC(=O)NO)c3)n2)cc1,0.83

# System: not listed separately
# Assay: Selectivity index, ratio of CC50 for human AC10 cells to IC50 for human Jurkat cells
# Assay type: toxicity
# Details: AC10 cells (CC50) and Jurkat cells (IC50)
row,SMILES,selectivity ratio
1,CC(=O)Nc1ccc(-c2ccnc(Nc3cccc(OCCCCCCCC(=O)NO)c3)n2)cc1,3

# System: not listed separately
# Assay: Selectivity index, ratio of CC50 for mouse TAMH cells to IC50 for human Jurkat cells
# Assay type: toxicity
# Details: TAMH cells (CC50) and Jurkat cells (IC50)
row,SMILES,selectivity ratio
1,CC(=O)Nc1ccc(-c2ccnc(Nc3cccc(OCCCCCCCC(=O)NO)c3)n2)cc1,< 0.28

# System: not listed separately
# Assay: Selectivity index, ratio of CC50 for human AC10 cells to IC50 for human KMS-12-BM cells
# Assay type: toxicity
# Details: AC10 cells (CC50) and KMS-12-BM cells (IC50)
row,SMILES,selectivity ratio
1,CC(=O)Nc1ccc(-c2ccnc(Nc3cccc(OCCCCCCCC(=O)NO)c3)n2)cc1,> 147

# System: not listed separately
# Assay: Selectivity index, ratio of CC50 for mouse TAMH cells to IC50 for human KMS-12-BM cells
# Assay type: toxicity
# Details: TAMH cells (CC50) and KMS-12-BM cells (IC50)
row,SMILES,selectivity ratio
1,CC(=O)Nc1ccc(-c2ccnc(Nc3cccc(OCCCCCCCC(=O)NO)c3)n2)cc1,4.07

# System: not listed separately
# Assay: Selectivity index, ratio of CC50 for human AC10 cells to IC50 for human XG6 cells
# Assay type: toxicity
# Details: AC10 cells (CC50) and XG6 cells (IC50)
row,SMILES,selectivity ratio
1,CC(=O)Nc1ccc(-c2ccnc(Nc3cccc(OCCCCCCCC(=O)NO)c3)n2)cc1,> 13.9

# System: not listed separately
# Assay: Selectivity index, ratio of CC50 for mouse TAMH cells to IC50 for human XG6 cells
# Assay type: toxicity
# Details: TAMH cells (CC50) and XG6 cells (IC50)
row,SMILES,selectivity ratio
1,CC(=O)Nc1ccc(-c2ccnc(Nc3cccc(OCCCCCCCC(=O)NO)c3)n2)cc1,0.38
